Several values for one entry are separate records, joined by “and”; a condition that tells them apart may be missing. Equal entries are not always repeated. Where two headings read alike, the source gives them in different places.
Columns and labels:
[1] = Pharmacokinetic evaluation in TNBS induced colitis model (plasma levels, LC-MS/MS); assay type: in vivo, male BALB/c mice; settings: TNBS colitis mice; for Cmax / AUC: male, BALB/c, mouse, 1 mg/kg twice a day, after fifth dose, plasma; for AUC: read-out: AUC0—12
Procedure: (§1) Animal with TNBS (2,4,6 trinitrobenzene sulfonic acid) induced colitis is an established model for IBD. Male BALB/c mice were kept for 16 hours fasting and were administered 0.1 ml TNBS solution (containing 1.5 mg of TNBS in 50% ethanol) rectally 4 cm inside the anus with the help of flexible polyethylene catheter under isoflurane anesthesia. Immediately after TNBS administration, mice were held vertically in a head-down position for an additional 45-60 sec to ensure retention and distribution of TNBS solution within the colon of animal. (Fiorucci et al, Immunity, 2002; Vol. 17; 769-780)
Pharmaceutical composition comprising compound A was administered to mice with TNBS induced colitis (as developed according to example 3) at the dose of 1 mg/kg of compound A twice a day, at 10 ml/kg dosing volume by intraperitoneal route and peroral route. Dosing was initiated a day prior to induction (day −1) of TNBS colitis. Blood samples of treated animals were collected before administration of fifth dose (0 min) and at various time points after fifth dose administration. Blood samples were centrifuged within one hour of collection at 4000 rpm for 10 min at 4° C. and plasma was separated. These plasma samples were analyzed for compound A levels using LC-MS/MS method. Pharmacokinetic parameters of the compound A were calculated by non-compartmental analysis method using Phoenix WinNolin version 6.2.

TNBS induced colitis = experiment: Effectiveness in TNBS induced colitis model; assay type: in vivo, male BALB/c mice
Procedure: as §1
Pharmaceutical composition comprising compound A was administered orally to mice with TNBS induced colitis (as developed according to example 3) at the dose of 1 mg/kg of compound A twice a day, at 10 ml/kg dosing volume. Dosing was initiated a day prior to induction (day −1) of TNBS colitis. Treatment related attenuation in body weight loss, improved disease activity index (DAI, a composite score ranging from 0 to maximum 12 considering the loss in body weight, fecal consistency and presence or absence of occult blood in feces), healthier colon (macroscopy score) and rate of survival were established in the 6 days treated animals (from day −1 to day 4) to check efficacy of compound A. Body weights were monitored daily, DAI was captured on day 2 and day 4 whereas colonic damage (macroscopy score and histopathological score) was scored based on extent of colonic damage. Histopathological evaluation of colonic damage was performed in formalin fixed colon tissue sections, stained with hematoxylin and eosin, at 10× magnification using Leica® DM2500 microscope, after study completion. (*p<0.05 vs placebo/vehicle {composition without compound A}), FIG. 5 and FIG. 8.
Similar to procedures given above in Example 5, pharmaceutical composition of compound A was administered, twice a day, in mice with TNBS induced colitis through intraperitoneal route and oral route. Treated animals were analyzed for improved disease activity index and healthier colon (macroscopy score).

DSS induced colitis = experiment: Effectiveness in DSS induced colitis model; assay type: in vivo, female BALB/c mice; settings: 1 and 2.5 mg/kg bid oral, day 5 to day 14, vs placebo (5% DSS)
Procedure: 5% DSS (MW-36000-50000) dissolved in drinking water was provided to female BALB/c mice for 11 days (Gunther et al, The Journal of Pharmacology and Experimental Therapeutics, 1999; Vol. 292, No. 1; 22-30) followed by DSS free period till day 14. Pharmaceutical composition comprising compound A was administered to these animals from day 5 to day 14 at the dose of 1 and 2.5 mg/kg of compound A twice a day, at 10 ml/kg dosing volume by oral route (PO). Placebo group was given similar composition without compound A. Placebo (composition without compound A) was also administered to healthy animals, which were given only drinking water and represented as placebo (water). Treatment related attenuation in body weight loss, improved disease activity index (DAI, a composite score ranging from 0 to maximum 12 considering the loss in body weight, fecal consistency and presence or absence of occult blood in feces) and colon histopathology (Score) were established in 10 days treated animals (from day 5 to day 14) to check efficacy of compound A. Body weights were monitored daily, DAI was captured every alternate day whereas histopathological evaluation of colonic damage was performed in formalin fixed colon tissue after study completion, similar to example 5. (*p<0.05 vs placebo (5% DSS)) and FIG. 4.

[2] = Excretion of compound A in feces, DSS induced colitis model; assay type: in vivo, female BALB/c mice; settings: for dose excreted: female, BALB/c, mouse, feces, po
Procedure: 5% DSS (MW-36000-50000) dissolved in drinking water was provided to female BALB/c mice throughout the study duration of 9 days. Single administration of pharmaceutical composition comprising compound A at the dose of 1 mg/kg of compound A, at 10 ml/kg dosing volume was performed orally on day 5. Feces were collected for 96 hours post administration of the composition. Feces collected was analyzed for compound A levels using LC-MS/MS method.

HSP70 = HSP70 expression in colon, DSS model of colitis (immunoblotting); assay type: in vivo, female BALB/c mice; settings: single oral 2.5 mg/kg, six hours after administration, vs placebo
Procedure: Effect of oral administration of pharmaceutical composition of compound A on expression of HSP70 was checked in DSS model of colitis.
5% DSS (MW-36000-50000) dissolved in drinking water was provided to female BALB/c mice for 5 days. Single dose of compound A was administered to these animals on day 5. Composition comprising compound A was administered at the dose of 2.5 mg/kg, at 10 ml/kg dosing volume by oral route (PO). Placebo group was given similar composition without compound A. Six hours after administration, animals were sacrificed and colon were processed for whole tissue extract preparation. Proteins were separated on SDS-PAGE followed by immunoblotting, employing HSP70 antibody.

TNF-α = experiment: Inflammatory marker mRNA expression in colon, DSS model: TNF-α; assay type: in vivo, female BALB/c mice; settings: 2.5 mg/kg bid oral day 5 to day 14, relative to placebo
Procedure: (§2) Effect of oral administration of pharmaceutical composition of compound A on expression of interleukin (IL)-10, TNF-α, and interferon (INF)-γ mRNA was assessed in DSS model of colitis.
(§3) Pharmaceutical composition comprising compound A was administered 2.5 mg/kg twice a day from day 5 to day 14 to DSS induced colitis mice (as developed according to example 7) by oral route (PO). Animals were sacrificed on day 14 and colon were processed for whole tissue extract preparation. Expression of interleukin (IL)-10, TNF-α, and interferon (INF)-γ mRNA along with expression of 18S rRNA was monitored employing gene specific primer and probes (Applied Biosystems, Foster City, Calif., USA) by quantitative real-time polymerase chain reaction on ABI 7900 HT (Applied Biosystems, Foster City, Calif., USA). mRNA expression was normalized relative to the expression of 18S rRNA. Placebo group was given similar composition without compound A. The results, as given in FIG. 7, were expressed as fold induction relative to placebo (composition without compound A).

interferon (INF)-γ = experiment: Inflammatory marker mRNA expression in colon, DSS model: INF-γ; assay type: in vivo, female BALB/c mice; settings: 2.5 mg/kg bid oral day 5 to day 14, relative to placebo
Procedure: as §2, §3

interleukin (IL)-10 = experiment: Inflammatory marker mRNA expression in colon, DSS model: IL-10; assay type: in vivo, female BALB/c mice; settings: 2.5 mg/kg bid oral day 5 to day 14, relative to placebo
Procedure: as §2, §3

[3] = test system: ischemic acute kidney injury (AKI); settings: administered intraperitoneally; cited from earlier work
[4] = 1 mg/kg bid oral, 6 days, vs placebo
[5] = single oral 1 mg/kg, feces collected 96 hours, individual animals, 1 mg/kg

Cmax ([1]; ip, Intraperitoneal): 399 ng/mL | AUC ([1]; ip, Intraperitoneal): 256 ng·h/mL | Cmax ([1]; Per Oral): 13.2 ng/mL | AUC ([1]; Per Oral): 63.1 ng·h/mL | dose excreted ([2]; 1 mg/kg, single oral 1 mg/kg, feces collected 96 hours, individual animals, read-out: % Recovery in feces): 63.9% | dose excreted ([2]; 1 mg/kg, single oral 1 mg/kg, feces collected 96 hours, mean of 5 animals, read-out: Mean % Recovery in feces): 58.7% | Compound A recovered from feces ([2]; oral composition, diseased animals): more than 50% | % Recovery in feces [2, 5]: 62.35% and 52.66% and 50.88% and 63.60%
SMILES: O=C(O)CNC(=O)c1c(O)nc2sc3c(n2c1=O)CCCCC3 [compound A, [(2-hydroxy-4-oxo-6,7,8,9-tetrahydro-4H,5H-10-thia-1,4a-diaza-benzo[a]azulene-3-carbonyl)-amino]-acetic acid]
Systemic concentration, oral compared to IP administration ([1]; equal dose): significantly lower systemic concentration | Disease activity index (DAI) (TNBS induced colitis; [4]): improving the disease activity index | Extent of colon damage (macroscopy, histopathology) (TNBS induced colitis; [4]): attenuating the extent of colon damage | Rate of weight loss (TNBS induced colitis; [4]): reducing rate of weight loss | Survival rate (TNBS induced colitis; [4]): improving survival rate | Therapeutic efficacy (DAI, macroscopy score), oral compared to IP administration (TNBS induced colitis; twice a day, oral even at lower doses): better therapeutic efficacy as compared to IP administration | Disease activity index (DAI) (DSS induced colitis): improving the disease activity index | Extent of colon damage (colitis score) (DSS induced colitis): attenuating extent of colon damage | Rate of weight loss (DSS induced colitis): reducing the rate of weight loss | Tissue architecture (colon histopathology) (DSS induced colitis): preserving tissue architecture | Total amount of compound A in feces [2, 5]: 15.34 µg and 13.71 µg and 12.63 µg and 12.71 µg and 12.08 µg | HSP70 protein expression in colon (HSP70): pronounced induction | TNFα mRNA expression in colon (TNF-α): reduction | INFγ mRNA expression in colon (interferon (INF)-γ): reduction | IL-10 mRNA expression in colon (interleukin (IL)-10): elevation | Effectiveness in ischemic acute kidney injury (AKI) [3]: effective
